Results from patent publication US20250281460A1, “PEGYLATED BILIRUBIN FOR THE TREATMENT OF […], OBESITY, FATTY LIVER DISEASE, CARDIOVASCULAR DISEASES AND TYPE II DIABETES” (The University of Toledo, priority 2019, published 2025).
Entries after “also recorded” stand apart in the source; their conditions may differ.

Columns and labels:
3T3-PPARα cells = assay: SeaHorse mitochondrial respiration in 3T3-PPARα cells; format: cell-based, mouse; details: 3T3-L1 cells overexpressing PPARα
Excerpt: To investigate the specific role of bilirubin on PPARα or PPARγ as well as mitochondrial function and gene regulation, 3T3-LI cells that overexpressed each receptor (3T3-PPARα or 3T3-PPARγ2) were generated via lentivirus (FIGS. 2A-2B). […] The 3T3-Vector cells had no responses to biliverdin in FIGS. 2A-2B.
Cellular respiration was quantified using the Seahorse Extracellular Flux Analyzer XF-96 (Agilent Technologies, Cedar Creek, TX). The Seahorse XF Cell Mito Stress Test Kit (Agilent Technologies, Cat #103015-100) was used for analysis of cellular respiration. BAT or 3T3-L1 cells were seeded on a XF96 cell culture microplate (Agilent 101085-004) at 20,000 cells per well. Cells were then differentiated as previously described for 9 days. […] The oxygen consumption rate (OCR) and extracellular acidification rate (ECAR) were used to quantify the cellular energy phenotype of the cells. After treatment, cells were washed twice with Seahorse Bioscience Assay Media (XF Base media with 25 mM Glucose, 2 mM […], and 1 mM Sodium Pyruvate) then incubated with the buffer for 1 hour in a non-CO2 incubator. The Seahorse Cartridge ports were loaded with […] of assay media with […] FCCP, 10 μM Oligomycin, 5 μM Rotenone/Antimycin A in different ports an hour before assay. […] The raw data and graphs were supplied as an Excel File or Graphpad Prizm file.

3T3-L1 cells = assay: Adipogenesis assay, lipid accumulation (Nile Red) in 3T3-L1 cells; format: cell-based, mouse; details: over 9-day adipocytic differentiation
Description: Whether bilirubin decreases adiposity by enhancing mitochondrial function was evaluated. It was previously shown that bilirubin reduces lipid accumulation in adipocytes. However, it remained to be determined if this occurs by activation of PPARα to reduce adiposity, selective actions on PPARγ, or is a dual PPAR agonist, which together may mediate its glucose- and lipid-lowering effects. First, to determine if bilirubin enhances genes for mitochondrial function, 3T3-L1 cells, a WAT-type murine pre-adipocyte cell line that differentiates to full adipocytes, were treated with increasing concentrations of biliverdin, which is more soluble and is rapidly produced to bilirubin, over the 9-day adipocytic differentiation protocol.

## C=CC1=C(C)/C(=C/C2=NC(=C\c3[nH]c(/C=C4\NC(=O)C(C)=C4C=C)c(C)c3CCC(=O)O)/C(CCC(=O)O)=C2C)NC1=O [biliverdin]
3T3-PPARα cells
  ATP production: significantly higher
  basal respiration: significantly higher
  maximum respiration: significantly higher
  proton leak: significantly higher
3T3-L1 cells; 1 μM
  lipid accumulation: did not reduce
3T3-L1 cells; 10 μM
  lipid accumulation: significantly reduced
3T3-L1 cells; 50 μM
  lipid accumulation: significantly reduced
3T3-L1 cells; 50 μM, listed as Biliverdin
  lipid accumulation: significantly reduced; also recorded: substantially decreased
